Bridges are numbered along the chain shown (N, C = ends). Roman numbers before positions name the chains, in order. Where no end group is shown, it is not given here.
Legend:
[1] = system: latently infected cell lines and primary T cells; details: cited from earlier work
[2] = system: Anti-C5/gp41 sera from BI400-B immunized rabbits; assay: Competitive ELISA for rabbit sera after immunization with BI400-B; assay type: binding; details: for Inhibition of binding of rabbit sera to C5/gp41 (015/201): competitor preincubated with serum, 10-1000 μM
Method: 50-100 μl of a mixture of BI400-015 and -201 (pre-incubated in Coating buffer—0.05M Na2CO3 pH9.6; denoted CB—in cold at 16 μg/ml for each peptide 1-3 days prior to coating) or just CB (background control) was used for coating wells in microtiter plates at 4° C. overnight. Plates were then washed 3x with washing buffer (PBS+1% v/v Triton-X100; denoted WB), followed by 2 h blocking at room temperature (RT) with 200 μl/well of blocking buffer (PBS+1% w/v BSA). Plates were then washed 3x with WB, followed by 1 h incubation at 37° C. with 60-100 μl/well of added rabbit serum samples (diluted 1:10-1:250 final concentration) preincubated together (4° C. overnight) with serial dilutions (ranging from 10-1000 μM final concentration) of 400-SEQ.B, BI400-015, BI400-201, BI400-204d, recombinant gp41 (Shin-Won Scientific, SWO 102 gp41), BI301-23 (irrelevant protein; control), no peptide (i.e. PBS; control), LTNP-sera pools (diluted 1:10 final concentration), or Blood donor sera-pools (diluted 1:10 final concentration; control). Plates were then washed 6x with WB, followed by 1 h incubation at RT with 70 μl/well of Alkaline Phosphatase-conjugated Goat-anti-Rabbit-Ig (6 μg/ml; Dako D0487). Plates were then washed 6x with WB, followed by 10-60 min incubation at RT with 100 μl/well of 0.3% w/v of Phenoftalein monophosphate (Sigma P-5758). Plates were finally quenched by adding 100 μl/well of Quench solution (0.1M TRIS+0.1M EDTA+0.5M NaOH+0.01% w/v NaN3; pH14), followed by ELISA reader (ASYS UVM 340) at 550 nm.

[3] = system: C5/gp41 (015/201); assay: Rabbit immunization with BI400-B vaccine, serum ELISA; assay type: in vivo, New Zealand White female rabbits; details: 500 μg intradermally weeks 0, 2, 6 in Freund's adjuvant; in the presence of PBS
Method: New Zealand White female rabbits (n=3) were immunized intradermally at weeks 0, 2 & 6 with 1 ml of BI400-B vaccine consisting of 500 μg BI400-B in 50% V/V Freund's adjuvant (i.e. Complete Freund's adjuvant used for priming, followed by boostings with Incomplete Freund's adjuvant). Individual blood serum was isolated for ELISA.
50-100 μl of a mixture of BI400-015 and -201 (pre-incubated in Coating buffer—0.05M Na2CO3 pH9.6; denoted CB—in cold at 16 μg/ml for each peptide 1-3 days prior to coating) or just CB (background control) was used for coating wells in microtiter plates at 4° C. overnight. Plates were then washed 3x with washing buffer (PBS+1% v/v Triton-X100; denoted WB), followed by 2 h blocking at room temperature (RT) with 200 μl/well of blocking buffer (PBS+1% w/v BSA). […] Plates were finally quenched by adding 100 μl/well of Quench solution (0.1M TRIS+0.1M EDTA+0.5M NaOH+0.01% w/v NaN3; pH14), followed by ELISA reader (ASYS UVM 340) at 550 nm.

[4] = system: HIV-specific T-cells; details: dendritic cells presenting Gag- or Nef-specific peptides; cited from earlier work
[5] = system: pooled human sera from HIV chronically infected individuals, LTNP and non-infected blood donors; assay: Seroreactivity of pooled human sera to peptide-coated magnetic particles (general ELISA principle); assay type: binding; details: peptide 600 μg/ml alone or 300 μg/ml each in combination; positivity determined visually
Method: Seroreactivity to SEQ ID NO: 1 alone or in combination with SEQ ID NOs. 6 (with the sequence […]), 8 and 9 was determined according to a general ELISA principle either using magnetic particles as a solid support or attachment of peptides to a 96-well tray.
In the system described below, peptide was coated on to magnetic particles using generally accepted techniques. 300 μg was coated onto particles for all peptides with the exception of SEQ1 where 600 μg was used. SEQ ID NO: 1 (from C5) and SEQ ID NO: 6, 8 and 9 (from gp41) were preincubated overnight at 4 degrees C. to allow interactions to form between between C5 and gp41 sequences respectively and all combined. Sera were then incubated with the peptide coated beads according to established protocols. Visualisation of antibody binding to C5 peptides was achieved using protein G that can bind immunoglobulins from different species coupled to alkaline phosphatase. The positive control was commercially available serum from a sheep immunised with the C5 derived sequence […] (SEQ ID NO: 1).
Pooled sera from 25 LTNP were tested for seroreactivity to SEQ ID NO: 1 alone and SEQ ID NO: 1 when in combination with SEQ ID NOs: 6 ([…]), 8 and 9 respectively and all combined. Pooled sera were also tested from 12 HIV positive, chronically infected individuals and 20 sera from blood donors.

## C/C=C1\NC(=O)[C@H]2CSSCC/C=C/[C@H](CC(=O)N[C@H](C(C)C)C(=O)N2)OC(=O)[C@H](C(C)C)NC1=O [romidepsin, (1S,4S,7Z,10S,16E,21R)-7-ethylidene-4,21-bis(1-methylethyl)-2-oxa-12,13-dithia-5,8,20,23-tetraazabicyclo[8.7.6] tricos-16-ene-3,6,9,19,22-pentone]
[1]
  Activation of HIV-1 expression: potently activates HIV-1 expression

## DRPEGIEEEGGERDR (Glu can be Gly; Gly can be Arg; Arg can be Gln; Asp can be Gly; Arg can be Lys) [SEQ ID NO: 6]
[2]
  Inhibition of binding of rabbit sera to C5/gp41 (015/201): could be inhibited

## BI400-B: SEQ ID NO: 38 and SEQ ID NO: 39 linked via Cys and Lys residues (chain 1 GAKRRVVGGCGGAKRRVVQREKRAGEREKRA; chain 2 GKGGIEEEGGRDRDRGGEQDRDR; bridge I:10-II:2 (inferred))
[3]
  Binding of sera from immunized rabbits to C5/gp41 peptides: bound to peptides corresponding to C5/gp41 (015/201)
[2]
  Inhibition of binding of rabbit sera to C5/gp41 (015/201): could be inhibited
[2]; sera pools diluted 1:10
  Competition of anti-C5/gp41 rabbit sera by human sera pools: competitively inhibited by LTNP-sera pools, but not with BD control sera

## Nc1cccc2c1CN(C1CCC(=O)NC1=O)C2=O (stereo not shown) [Lenalidomide]
[4]
  Function of T-cells after in vitro stimulation in presence of IMiDs: a number of improvements in the function of the T-cells

## APTKAKRRVVQREKR [SEQ ID NO: 1]
[5]
  Seroreactivity, Blood-donors pool: =
[2]
  Inhibition of binding of rabbit sera to C5/gp41 (015/201): could be inhibited

## Nc1cccc2c1C(=O)N(C1CCC(=O)NC1=O)C2=O (stereo not shown) [pomalidomide]
[4]
  Function of T-cells after in vitro stimulation in presence of IMiDs: a number of improvements in the function of the T-cells

## GGAIVNGSLADDDIVI [SEQ ID NO: 37]
[2]
  Inhibition of binding of rabbit sera to C5/gp41 (015/201): could be inhibited

Reference: US10143737B2, “Method for the vaccination against HIV” (Bionor Immuno AS, priority 2014, dated 2018)
